How the values were obtained:
human GCGR = molecular target: T1, human GCGR (Homo sapiens, UniProt P47871); assay: cAMP activity assay (HitHunter cAMP XS), cells expressing human GCGR; format: cell-based; conditions: for EC50: Table 2, cAMP production, read-out: EC50 hGCGR
T1 construct: expressed in transfected cells
Method: (§1) Peptides were dissolved in 100% DMSO and serially diluted to generate 10 point titrations. The peptide solutions were then transferred into 384-well assay plates (150 nL/well). Assay ready frozen cells expressing human GLP1R or human GCGR were suspended in growth media consisting of DMEM medium (GIBCO), 10% FBS (GIBCO), 1×NEAA(GIBCO), 1× P/S (GIBCO), 10 ug/ml Blasticidin (GIBCO) and 200 μg/mL Hygromycin (GIBCO). […] The cell suspensions (15 μL) were then added to the assay plates containing the peptide solutions (30,000 cells/well for human GCGR; 10,000 cells/well for human GLP1R). The cells were incubated for 1 hour at room temperature in the dark. Production of cAMP was determined using HitHunter™ cAMPXS kits (DiscoverX) following manufacturer protocol. The plates were incubated for overnight at room temperature in the dark. Luminescence was measured using an EnVision Multilabel plate reader (Perkin Elmer). […] EC50 values were calculated using uses a 4 parameter logistic fit based on the Levenberg-Marquardt algorithm.

human GLP1R = molecular target: T2, human GLP1R (Homo sapiens, UniProt P43220); assay: cAMP activity assay (HitHunter cAMP XS), cells expressing human GLP1R; format: cell-based; conditions: Table 2; cAMP production; read-out: EC50 hGLP1R
T2 construct: expressed in transfected cells
Method: as §1

T1 sequence (P47871 26-477): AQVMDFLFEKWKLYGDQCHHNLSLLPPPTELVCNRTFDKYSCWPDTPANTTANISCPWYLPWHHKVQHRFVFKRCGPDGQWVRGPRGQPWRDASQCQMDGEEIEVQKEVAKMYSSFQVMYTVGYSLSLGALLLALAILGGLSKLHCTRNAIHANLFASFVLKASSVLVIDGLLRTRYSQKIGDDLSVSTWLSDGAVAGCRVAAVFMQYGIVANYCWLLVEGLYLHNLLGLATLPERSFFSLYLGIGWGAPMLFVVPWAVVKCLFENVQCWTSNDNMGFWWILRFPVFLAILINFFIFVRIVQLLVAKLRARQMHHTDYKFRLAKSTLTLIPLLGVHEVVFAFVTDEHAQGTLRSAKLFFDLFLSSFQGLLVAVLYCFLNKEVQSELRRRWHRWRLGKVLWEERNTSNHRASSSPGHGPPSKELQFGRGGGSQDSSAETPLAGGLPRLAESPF
T2 sequence (P43220 24-463): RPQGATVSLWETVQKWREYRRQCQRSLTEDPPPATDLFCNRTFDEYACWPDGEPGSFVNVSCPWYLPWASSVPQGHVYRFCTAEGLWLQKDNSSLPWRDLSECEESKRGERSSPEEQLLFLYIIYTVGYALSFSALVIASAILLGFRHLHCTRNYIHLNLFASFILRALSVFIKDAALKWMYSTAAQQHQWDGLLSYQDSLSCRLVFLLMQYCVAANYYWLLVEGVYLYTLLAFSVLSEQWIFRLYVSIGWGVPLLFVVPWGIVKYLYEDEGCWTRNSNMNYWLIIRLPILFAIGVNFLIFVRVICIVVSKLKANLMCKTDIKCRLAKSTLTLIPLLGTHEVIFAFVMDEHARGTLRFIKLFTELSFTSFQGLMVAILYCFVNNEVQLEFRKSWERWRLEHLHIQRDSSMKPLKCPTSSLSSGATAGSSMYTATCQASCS

| SMILES | EC50 (human GCGR) | EC50 (human GLP1R) | balance of activity at the GCG and GLP-1 receptors (human GCGR; in words, both receptors) |
| --- | --- | --- | --- |
| CC(C)C[C@H](NC(=O)[C@H](Cc1ccc(O)cc1)NC(=O)[C@H](CCCCN)NC(=O)[C@H](CO)NC(=O)[C@H](Cc1ccc(O)cc1)NC(=O)[C@H](CC(=O)O)NC(=O)[C@H](CO)NC(=O)[C@@H](NC(=O)[C@H](Cc1ccccc1)NC(=O)[C@@H](NC(=O)CNC(=O)[C@H](CCC(N)=O)NC(=O)[C@H](CO)NC(=O)[C@@H](N)Cc1c[nH]cn1)[C@@H](C)O)[C@@H](C)O)C(=O)N[C@@H](CC(=O)O)C(=O)N[C@@H](Cc1c[nH]c2ccccc12)C(=O)N[C@@H](CCCNC(=N)N)C(=O)N[C@@H](CCCNC(=N)N)C(=O)N[C@@H](C)C(=O)N[C@@H](CCC(N)=O)C(=O)N[C@@H](CC(=O)O)C(=O)N[C@@H](Cc1ccccc1)C(=O)N[C@H](C(=O)N[C@@H](CCC(N)=O)C(=O)N[C@@H](Cc1c[nH]c2ccccc12)C(=O)N[C@@H](CC(C)C)C(=O)N[C@@H](CC(C)C)C(=O)N[C@@H](CC(N)=O)C(=O)N[C@H](C(N)=O)[C@@H](C)O)C(C)C [PD23] | 0.03 nM | 0.05 nM |  |
| CC[C@H](C)[C@H](NC(=O)[C@H](CC(C)C)NC(=O)[C@H](Cc1c[nH]c2ccccc12)NC(=O)[C@H](CCC(N)=O)NC(=O)[C@@H](NC(=O)[C@H](Cc1ccccc1)NC(=O)[C@H](CC(=O)O)NC(=O)[C@H](CCC(N)=O)NC(=O)[C@H](C)NC(=O)[C@H](CCCNC(=N)N)NC(=O)[C@H](CCCNC(=N)N)NC(=O)[C@H](C)NC(=O)[C@H](CC(=O)O)NC(=O)[C@H](CC(C)C)NC(=O)[C@H](Cc1ccc(O)cc1)NC(=O)[C@H](CCCCN)NC(=O)[C@H](CO)NC(=O)[C@H](Cc1ccc(O)cc1)NC(=O)[C@H](CC(=O)O)NC(=O)[C@H](CO)NC(=O)[C@@H](NC(=O)[C@H](Cc1ccccc1)NC(=O)[C@@H](NC(=O)CNC(=O)[C@H](CCC(N)=O)NC(=O)[C@H](CO)NC(=O)[C@@H](N)Cc1c[nH]cn1)[C@@H](C)O)[C@@H](C)O)C(C)C)C(=O)N[C@@H](CCCNC(=N)N)C(=O)N[C@H](C(N)=O)[C@@H](C)O [PD25] | 0.04 nM | 0.02 nM |  |
| CC[C@H](C)[C@H](NC(=O)[C@H](CC(C)C)NC(=O)[C@H](Cc1c[nH]c2ccccc12)NC(=O)[C@H](CCC(N)=O)NC(=O)[C@@H](NC(=O)[C@H](Cc1ccccc1)NC(=O)[C@H](CC(=O)O)NC(=O)[C@H](CCC(N)=O)NC(=O)[C@H](C)NC(=O)[C@H](CCCNC(=N)N)NC(=O)[C@H](CCCNC(=N)N)NC(=O)[C@H](CO)NC(=O)[C@H](CC(=O)O)NC(=O)[C@H](CC(C)C)NC(=O)[C@H](Cc1ccc(O)cc1)NC(=O)[C@H](CCCCN)NC(=O)[C@H](CO)NC(=O)[C@H](Cc1ccc(O)cc1)NC(=O)[C@H](CC(=O)O)NC(=O)[C@H](CO)NC(=O)[C@@H](NC(=O)[C@H](Cc1ccccc1)NC(=O)[C@@H](NC(=O)CNC(=O)[C@H](CCC(N)=O)NC(=O)[C@H](CO)NC(=O)[C@@H](N)Cc1c[nH]cn1)[C@@H](C)O)[C@@H](C)O)C(C)C)C(=O)N[C@@H](CC(N)=O)C(=O)N[C@@H](Cc1ccc(O)cc1)C(N)=O [PD31] | 0.06 nM | 0.04 nM |  |
| CSCC[C@H](NC(=O)[C@H](CC(C)C)NC(=O)[C@H](Cc1c[nH]c2ccccc12)NC(=O)[C@H](CCC(N)=O)NC(=O)[C@@H](NC(=O)[C@H](Cc1ccccc1)NC(=O)[C@H](CC(=O)O)NC(=O)[C@H](CCC(N)=O)NC(=O)[C@H](C)NC(=O)[C@H](CCCNC(=N)N)NC(=O)[C@H](CCCNC(=N)N)NC(=O)[C@H](CO)NC(=O)[C@H](CC(=O)O)NC(=O)[C@H](CC(C)C)NC(=O)[C@H](Cc1c[nH]c2ccccc12)NC(=O)[C@H](Cc1c[nH]cn1)NC(=O)[C@H](CO)NC(=O)[C@H](Cc1ccc(O)cc1)NC(=O)[C@H](CC(=O)O)NC(=O)[C@H](CO)NC(=O)[C@H](Cc1ccccc1)NC(=O)[C@H](Cc1ccccc1)NC(=O)[C@@H](NC(=O)CNC(=O)[C@H](CCC(N)=O)NC(=O)[C@H](CO)NC(=O)[C@@H](N)Cc1c[nH]cn1)[C@@H](C)O)C(C)C)C(=O)N[C@@H](CC(N)=O)C(=O)N[C@H](C(N)=O)[C@@H](C)O [PD43] | 0.03 nM | 0.04 nM |  |
| CC(C)C[C@H](NC(=O)[C@H](Cc1ccc(O)cc1)NC(=O)[C@H](CCCCN)NC(=O)[C@H](CO)NC(=O)[C@H](Cc1ccc(O)cc1)NC(=O)[C@H](CC(=O)O)NC(=O)[C@H](CO)NC(=O)[C@@H](NC(=O)[C@H](Cc1ccccc1)NC(=O)[C@@H](NC(=O)CNC(=O)[C@H](CCC(N)=O)NC(=O)[C@H](CO)NC(=O)[C@@H](N)Cc1c[nH]cn1)[C@@H](C)O)[C@@H](C)O)C(=O)N[C@@H](CC(=O)O)C(=O)N[C@@H](Cc1c[nH]c2ccccc12)C(=O)N[C@@H](CCCNC(=N)N)C(=O)N[C@@H](CCCNC(=N)N)C(=O)N[C@@H](C)C(=O)N[C@@H](CCC(N)=O)C(=O)N[C@@H](CC(=O)O)C(=O)N[C@@H](Cc1ccccc1)C(=O)N[C@H](C(=O)N[C@@H](CCC(N)=O)C(=O)N[C@@H](Cc1c[nH]c2ccccc12)C(=O)N[C@@H](CC(C)C)C(=O)N[C@@H](CCC(N)=O)C(=O)N[C@@H](CC(N)=O)C(=O)N[C@H](C(N)=O)[C@@H](C)O)C(C)C [PD44] | 0.02 nM | 0.01 nM | relatively balanced potent activity at the GCG and GLP-1 receptors |
| CC(C)C[C@H](NC(=O)[C@H](CC(C)C)NC(=O)[C@H](Cc1c[nH]c2ccccc12)NC(=O)[C@H](CC(=O)O)NC(=O)[C@@H](NC(=O)[C@H](Cc1ccccc1)NC(=O)[C@H](CC(=O)O)NC(=O)[C@H](CCC(N)=O)NC(=O)[C@H](C)NC(=O)[C@H](CCCNC(=N)N)NC(=O)[C@H](CCCNC(=N)N)NC(=O)[C@H](CO)NC(=O)[C@H](CC(=O)O)NC(=O)[C@H](CC(C)C)NC(=O)[C@H](Cc1ccc(O)cc1)NC(=O)[C@H](CCCCN)NC(=O)[C@H](CO)NC(=O)[C@H](Cc1ccc(O)cc1)NC(=O)[C@H](CC(=O)O)NC(=O)[C@H](CO)NC(=O)[C@@H](NC(=O)[C@H](Cc1ccccc1)NC(=O)[C@@H](NC(=O)CNC(=O)[C@H](CCC(N)=O)NC(=O)[C@H](CO)NC(=O)[C@@H](N)Cc1c[nH]cn1)[C@@H](C)O)[C@@H](C)O)C(C)C)C(=O)N[C@@H](CC(N)=O)C(=O)N[C@@H](C)C(N)=O [PD48] | 0.07 nM | 0.02 nM |  |
| CC[C@H](C)[C@H](NC(=O)[C@H](CC(C)C)NC(=O)[C@H](Cc1c[nH]c2ccccc12)NC(=O)[C@H](CC(=O)O)NC(=O)[C@@H](NC(=O)[C@H](Cc1ccccc1)NC(=O)[C@H](CC(=O)O)NC(=O)[C@H](CCC(N)=O)NC(=O)[C@H](C)NC(=O)[C@H](CCCNC(=N)N)NC(=O)[C@H](CCCNC(=N)N)NC(=O)[C@H](CO)NC(=O)[C@H](CC(=O)O)NC(=O)[C@H](CC(C)C)NC(=O)[C@H](Cc1ccc(O)cc1)NC(=O)[C@H](CCCCN)NC(=O)[C@H](CO)NC(=O)[C@H](Cc1ccc(O)cc1)NC(=O)[C@H](CC(=O)O)NC(=O)[C@H](CO)NC(=O)[C@@H](NC(=O)[C@H](Cc1ccccc1)NC(=O)[C@@H](NC(=O)CNC(=O)[C@H](CCC(N)=O)NC(=O)[C@H](CO)NC(=O)[C@@H](N)Cc1c[nH]cn1)[C@@H](C)O)[C@@H](C)O)C(C)C)C(=O)N[C@@H](CC(N)=O)C(=O)N[C@@H](CO)C(N)=O [PD50] | 0.02 nM | 0.01 nM |  |
| CSCC[C@H](NC(=O)[C@H](CC(C)C)NC(=O)[C@H](Cc1c[nH]c2ccccc12)NC(=O)[C@H](CCC(N)=O)NC(=O)[C@@H](NC(=O)[C@H](Cc1ccccc1)NC(=O)[C@H](CC(=O)O)NC(=O)[C@H](CCC(N)=O)NC(=O)[C@H](C)NC(=O)[C@H](CCCNC(=N)N)NC(=O)[C@H](CCCNC(=N)N)NC(=O)[C@H](CO)NC(=O)[C@H](CC(=O)O)NC(=O)[C@H](CC(C)C)NC(=O)[C@H](Cc1ccc(O)cc1)NC(=O)[C@H](CCCCN)NC(=O)[C@H](CO)NC(=O)[C@H](Cc1ccc(O)cc1)NC(=O)[C@H](CC(=O)O)NC(=O)[C@H](CO)NC(=O)[C@@H](NC(=O)[C@H](Cc1ccccc1)NC(=O)[C@@H](NC(=O)CNC(=O)[C@H](Cc1c[nH]cn1)NC(=O)[C@H](CO)NC(=O)[C@@H](N)Cc1c[nH]cn1)[C@@H](C)O)[C@@H](C)O)C(C)C)C(=O)N[C@H](C(=O)N[C@H](C(N)=O)[C@@H](C)O)[C@@H](C)O [PD51] | 0.03 nM | 0.02 nM |  |
| CSCC[C@H](NC(=O)[C@H](CC(=O)O)NC(=O)[C@H](CC(C)C)NC(=O)[C@H](Cc1ccc(O)cc1)NC(=O)[C@H](CCCCN)NC(=O)[C@H](CO)NC(=O)[C@H](Cc1ccc(O)cc1)NC(=O)[C@H](CC(=O)O)NC(=O)[C@H](CO)NC(=O)[C@@H](NC(=O)[C@H](Cc1ccccc1)NC(=O)[C@@H](NC(=O)CNC(=O)[C@H](CCC(N)=O)NC(=O)[C@H](CO)NC(=O)[C@@H](N)Cc1c[nH]cn1)[C@@H](C)O)[C@@H](C)O)C(=O)N[C@@H](CCC(N)=O)C(=O)N[C@@H](CCCNC(=N)N)C(=O)N[C@@H](C)C(=O)N[C@@H](Cc1c[nH]cn1)C(=O)N[C@@H](CC(=O)O)C(=O)N[C@@H](Cc1ccccc1)C(=O)N[C@H](C(=O)N[C@@H](CCC(N)=O)C(=O)N[C@@H](Cc1c[nH]c2ccccc12)C(=O)N[C@@H](CC(C)C)C(=O)N[C@@H](CCSC)C(=O)N[C@@H](CC(N)=O)C(=O)N[C@H](C(N)=O)[C@@H](C)O)C(C)C [PD55] | 0.01 nM | 0.01 nM |  |
